Like-named read-outs stand apart in the source and are kept apart here.
Tests used:
[1] = test system: NMDA receptors; settings: concentration giving complete protection of neurons against 200 μM NMA, cell culture; cited from earlier work
[2] = test system: NMDA receptors; test: Protection of neurons in cell culture against 200 μM NMA (Olney et al 1987); type: cell-based; settings: ratio of protective concentrations
Protocol: In Table 1, the “protective concentration” for each compound was the micromolar concentration of that compound which provided complete protection for neurons, in cell culture tests, against a 200 μM concentration of NMA (i.e., a racemic mixture of the D and L stereoisomers of N-methyl-aspartate; the D isomer, which makes up 50% of the racemic mixture, is highly toxic to neurons, while the L isomer is somewhat less toxic).

[3] = target: NMDA receptors; settings: concentration suppressing MK-801 binding by 50%, cited from earlier work
[4] = test system: rats; test: Sensorimotor battery (plank, walking initiation, platform, inclined screen, activity); type: in vivo, rat; settings: treatment regimens that proved effective for relieving neuropathic pain; 1 hour post-treatment
Protocol: Testing was done at 1 hour post-treatment, which corresponded with the time of peak effect of drugs on paw withdrawal latency. Briefly, the sensorimotor battery consisted of five tests (Wozniak et al 1990) that are known to be able to detect significant muscle weakness, incoordination, somnolence, or other behavioral impairments.
For all of the tests in this sensorimotor battery, all treatment groups first received a habituation trial, to allow each rat to acclimate to the test situation. In all tests, protective padding was placed under any elevated apparatuses, to prevent pain or injury from falling. The tests performed were as follows:
A rat was timed for how long it could remain on a wooden plank that is 3 cm wide, elevated 61 cm above the floor.
Each rat was placed in the middle of a square outlined by white cloth tape (50×50 cm) on a smooth black surface of a large table top, and was timed for how long was required for the rat to leave the square (place all four paws outside the square).
Each rat was timed for how long it could remain perched on an elevated (61 cm above the floor) platform of small dimensions (7.6×15.2 cm).
Each rat was placed in the middle of an elevated (61 cm above the floor) wire mesh grid (8 squares per 10 cm) which was inclined at 60 degrees with the floor. […]

[5] = test system: rats with sciatic nerve ligation; test: Sciatic nerve ligation model of neuropathic pain, paw lifting latency to thermal stimulus; type: in vivo, rat
From the text: In all experiments, one hind limb of the rat has undergone a surgical operation in which a loop (“ligature”) of suture material was placed around the sciatic nerve and gently tightened. Over the course of several days, this caused chronic irritation to the nerve, driving it into a “hyper-sensitized” condition of the type which occurs in damaged neuronal circuits that cause neuropathic pain in humans.
After the nerve ligation operation, a waiting period of 8 days elapsed, to allow the ligated limb to reach a peak of hypersensitized chronic irritation of the ligated sciatic nerve. This sciatic nerve model was first described by Bennet and Xie 1988, and is widely regarded as a useful animal model for studying neuropathic pain.
To test the degree of sensitivity in the ligated limb vs. the unoperated limb, a beam of light (thermal stimulus) is applied to the soles (i.e., the undersurface area which is not covered by fur) of the hind paws, by shining a focused beam of light onto the sole, through the glass floor of a testing chamber. This beam was sufficiently hot to generate some discomfort, without posing any risk of burning the paw. The number of seconds that elapsed after commencement of the thermal stimulus, until the rat lifted up the paw, were detected electronically and recorded automatically.
Each limb is tested initially for thermal pain sensitivity, before the ligation operation is performed (pre-surgery), to ensure that both limbs had the same degree of pain sensitivity. After 8 days following surgery, each limb was tested again, before any treatment was given (pre-treatment), to ensure that the nerve ligature successfully provoked a hyper-irritable condition in the ligated limb. After drug treatment (at time=0, on the graphs), each limb was tested for thermal pain sensitivity at hourly intervals, for 4 hours.
The first set of in vivo tests involved sciatic nerve ligation in rats, using procedures described in Bennett and Xie, Pain 33: 87-107 (1988). This test involves surgically placing and tightening a loop of suture material around the sciatic nerve in one hind leg of a rat; the other hind leg serves as a control. Within about a week, the ligated sciatic nerve becomes irritated and reaches a hyper-responsive “kindled” state, where it will respond rapidly to even a mild stimulus that is not painful to an untampered leg. As such, it offers a model of what happens in pain pathways that have become pathologically hypersensitized in a human suffering from neuropathic pain.
In these tests, on the 8th day after surgery, the rat is placed in a testing device which electronically measures how quickly or slowly it acts, in lifting up a paw in response to a standardized mild warming (thermal) stimulus. The warming stimulus is generated by a light beam which shines onto the bottom surface of the paw, through the glass floor of the testing enclosure. The device is electronically controlled and automated, and measurements are made of the number of seconds that elapse after the light beam begins to shine on the bottom of the paw, until the rat lifts its paw.
To establish baseline values for pain sensitivity of each limb in each group of animals, each limb was tested initially for thermal pain sensitivity before the ligation operation was performed (pre-surgery). After 8 days, each limb was again tested before any drug treatment was administered (shown by the “pre-treatment” legend in all graphs). After drug administration, each limb was tested for thermal pain sensitivity at hourly intervals, for 4 hours.
Saline controls and all drugs were administered by intraperitoneal (IP) injection, i.e., hypodermic injection into the abdominal region. This is a convenient and reliable method of drug administration, for tests involving rats.
The test results are shown graphically in the Figures; each circle indicates the mean value, and the vertical bars show the standard error of the mean (SEM). […]

[6] = test system: rats; settings: from 0.5 hr after treatment for 1 hr
Protocol: To address these issues, rats with sciatic nerve ligations, and rats with only sham sciatic nerve ligations, were treated with various doses of ethopropazine, clonidine, or the two agents together. They were then evaluated, using the following battery of sensorimotor and activity tests:
(5) One Hour Activity Level.
Locomotor activity was evaluated beginning at 0.5 hr following drug treatment, and lasting for 1 hr. In this test, the rat was placed in a cage equipped with three pairs of photoelectric cells, placed at regular intervals across the width of the cage, so that the animal's activity was monitored by automatically recording the number of “beam breaks” registered as the animal moved about the cage.

[7] = clonidine alone, IP, 0.075 mg/kg

Compound: CN1[C@@H]2C[C@@H](OC(=O)[C@H](CO)c3ccccc3)C[C@H]1[C@@H]1O[C@@H]12 [Scopolamine]
- Protective concentration [1]: >3000 µM

Compound: c1ccc(C2(N3CCCCC3)CCCCC2)cc1 [phencyclidine]
- potency relative to ethopropazine (times more potent) [2]: 50 times
- potency relative to procyclidine (times more potent) [2]: 30 times
- Protective concentration [1]: 0.5 µM

Compound: CN(C)CCOC(c1ccccc1)c1ccccc1 [Diphenhydramine]
- Protective concentration [1]: 250 µM

Compound: OC(CCN1CCCC1)(c1ccccc1)C1CCCCC1 (centres unmarked) [Procyclidine]
- Protective concentration [1]: 15 µM

Compound: CNCCCN1c2ccccc2CCc2ccccc21 [Desipramine]
- IC50 [3]: 7.41 ± 1.32 µM

Compound: CN(C)CCCN1c2ccccc2Sc2ccc(Cl)cc21 [Chlorpromazine]
- IC50 [3]: 45.9 ± 11.5 µM

Compound: CCN(CC)C(C)CN1c2ccccc2Sc2ccccc21 (centres unmarked) [Ethopropazine]
- performance on sensorimotor tests [4]: None of the ethopropazine or combined ethopropazine-plus-clonidine treatment regimens that proved effective for relieving neuropathic pain was associated with any impaired performance
- paw lifting latency curves of ligated and control limbs ([5]; ethopropazine alone, FIGS. 2B and 2C (20 and 30 mg/kg), 2 and 3 hour testing times): both curves rose, substantially
- pain sensitivity (paw lifting latency) ([5]; ethopropazine alone, IP, 50 mg/kg, FIG. 2D): significantly changed the level of pain sensitivity in the ligated limb
- pain sensitivity (paw lifting latency) ([5]; ethopropazine alone, IP, 10 to 30 mg/kg, FIG. 2): did not significantly change the pain sensitivity in either limb
- activity level ([6]; ethopropazine alone, 50 mg/kg): significantly reduced activity level
- Protective concentration [1]: 25 µM

Compound: CNCCC=C1c2ccccc2CCc2ccccc21 [Nortriptyline]
- IC50 [3]: 21 ± 0.67 µM

Compound: Clc1cccc(Cl)c1N=C1NCCN1 [clonidine]
- relief of neuropathic pain ([5]; clonidine alone, IP, 0.025 mg/kg and 0.05 mg/kg): no significant relief of neuropathic pain
- relief of neuropathic pain [5, 7]: significant and relatively sustained neuropathic pain relief
- sedation observed [5, 7]: significant sedation
- activity level ([6]; clonidine alone, 0.050 mg/kg): reduce activity levels, but only slightly and to a barely significant degree
- activity level ([6]; clonidine alone, 0.075 mg/kg): substantially reduced activity levels

Compound: OC(CCN1CCCCC1)(c1ccccc1)C1CC2C=CC1C2 (centres unmarked) [Biperiden]
- Protective concentration [1]: 200 µM

Compound: CNC1(c2ccccc2Cl)CCCCC1=O (centres unmarked) [Ketamine]
- potency relative to ethopropazine (times more potent) [2]: 5 times
- potency relative to procyclidine (times more potent) [2]: 3 times
- IC50 ([3]; comparator in text): 1.02 ± 0.33 µM
- Protective concentration [1]: 5 µM

Compound: OC(CCN1CCCCC1)(c1ccccc1)C1CCCCC1 (centres unmarked) [Trihexyphenidyl]
- Protective concentration [1]: 125 µM

From US20020177592A1, “Combination of adrenergic agonist and tricyclo-alkylamine for relieving chronic pain without adverse side effects” (priority 1998, published 2002)
